Assay results from ChEMBL document CHEMBL1949522, “Acremostrictin, a highly oxygenated metabolite from the marine fungus Acremonium strictum” (J Nat Prod, 2011).
In brackets after ≈: the same amount, converted by molar mass. Activity calls are given as the source filed them. No cut-off for these calls is given here.

Columns and labels:
Salmonella typhimurium = test: Antibacterial activity against Salmonella Typhimurium ATCC 14028 after 24 hrs; type: functional, Salmonella enterica subsp. enterica serovar Typhimurium; settings: Salmonella enterica, ATCC 14028, 24 h
HaCaT = test: Antioxidant activity in human HaCaT cells assessed as inhibition of H2O2-induced cell death pretreated for 1 hr prior to H2O2 challenge measured after 24 hrs by spectrophotometric analysis; type: functional, cell-based
Escherichia coli = test: Antibacterial activity against Escherichia coli ATCC 35270 after 24 hrs; type: functional; settings: ATCC 35270, 24 h
Proteus vulgaris = test: Antibacterial activity against Proteus vulgaris ATCC 3851 after 24 hrs; type: functional; settings: ATCC 3851, 24 h
[1] = system: Radical scavenging activity; test: Antioxidant activity assessed as DPPH radical-scavenging activity after 30 mins by spectrophotometric analysis; type: functional
Staphylococcus aureus = test: Antibacterial activity against Staphylococcus aureus ATCC 6538p after 24 hrs; type: functional
Micrococcus luteus = test: Antibacterial activity against Micrococcus luteus IFO 12708 after 24 hrs; type: functional; settings: IFO 12708, 24 h
K562 = test: Anticancer activity against human K562 cells; type: functional, cell-based
Bacillus subtilis = test: Antibacterial activity against Bacillus subtilis ATCC 6633 after 24 hrs; type: functional; settings: ATCC 6633, 24 h

MIC (Salmonella typhimurium): 50 µg/mL (≈ 198 µM)
MIC (Escherichia coli): > 100 µg/mL
MIC (Proteus vulgaris): 12.5 µg/mL (≈ 49.6 µM)
IC50 [1]: 2.1 mM
MIC (Staphylococcus aureus): > 100 µg/mL
MIC (Micrococcus luteus): 50 µg/mL (≈ 198 µM)
MIC (Bacillus subtilis): > 100 µg/mL
Structure (SMILES): CC1=C[C@@H]2C[C@]3(C)OC(=O)[C@@](O)([C@H]3C)[C@]2(O)C1=O (relative stereo)
inhibition (HaCaT): Dose-dependent effect
Activity [1]: Dose-dependent effect
Activity (K562): inactive
